Data taken from patent US6184254A, “Methods of identifying modulators of perivascular sensory nerve Ca2+ receptors” (priority 1998, dated 2001).
“Also recorded” adds a separate entry of the source.

Tests used:
[1] = tested on: renal artery segment pre-contracted with norepinephrine; assay: Superfusion bioassay with renal artery segment; parameters: species or system rat
From the text: The renal artery used as the bioassay segment was isolated and mounted between a fixed support and a force transducer and the lack of response to addition of Ca^2+ was verified (FIG. 9A). The bioassay segment was then superfused with PSS that was allowed to drip across a mesenteric arcade attached to PE-10 tubing; the cut ends of the arcade were tied with suture material to prevent egress of endothelium-derived factors. […] To further examine the possibility that a diffusible substance was released from the mesenteric arcade in response to 5 mM Ca^2+, the superfusate was collected and stored on ice for approximately 45 minutes. The bioassay segment was then returned to the organ chamber, recontracted with norepinephrine and the response to Ca^2+ and to the collected superfusate were assessed.

[2] = tested on: mesenteric resistance arteries of SHR and WKY; assay: Response to norepinephrine of SHR and WKY mesenteric resistance arteries at different extracellular Ca2+; parameters: species or system rat (SHR and WKY); details: 1.5 and 2.5 vs 1.25 mmol/L Ca2+, both strains
Method: In an initial series of experiments the isometric force response of mesenteric resistance arteries of SHR and WKY was assessed to cumulative addition of norepinephrine in the presence of 1.25, 1.5 and 2.5 mmol/L extracellular Ca^2+ (Li, J., et al., 1993).

[3] = tested on: rat tail arteries; details: raising Ca2+ from 4.1 to 20.1 mmol/L; cited from earlier work
[4] = tested on: rat aorta; details: cited from earlier work
[5] = tested on: mammalian arteries; details: slightly supraphysiologic concentrations; cited from earlier work
[6] = tested on: aorta; details: high extracellular Ca2+; cited from earlier work
[7] = tested on: intracellular Ca^2+ of mesenteric resistance arteries; assay: Intracellular Ca2+ (fura-based) of mesenteric resistance arteries; parameters: species or system Wistar rat; details: 1.6 and 2.5 mmol/L Ca2+
Method: (§1) Mesenteric resistance arteries were isolated from Wistar rats; and intracellular Ca^2+ and isometric force were measured using a fura-based method and w ire myography (Bian, et aL, 1995b). Vessels were depleted of releasable Ca^2+ by repeated contraction with norepinephrine; and extracellular Ca^2+ was then cumulatively added back from 0.025-2.5 mmol/L in the presence of a n agonist. […] It was concluded that extracellular Ca^2+ limits force generation by depressing myofilament Ca^2+ sensitivity and decreasing intracellular Ca^2+ secondary to activation of a Ca^2+ -sensitive K^+ channel.

[8] = tested on: cremaster arterioles; details: Ca2+ 0 to 5.1 mM; cited from earlier work
[9] = tested on: blood pressure; details: cited from earlier work
[10] = tested on: blood pressure; details: SHR; cited from earlier work
[11] = tested on: mesenteric resistance arteries; assay: Isometric force/active stress of Ca2+-depleted mesenteric resistance arteries; parameters: species or system Wistar rat
Method: In the course of studies designed to examine the hypothesis that the Ca^2+ force relationship of resistance arteries is altered in genetically hypertensive rats, it was discovered that physiologic concentrations of extracellular Ca^2+ affected the repeated contraction elicited by norepinephrine in Ca^2+ -free medium.
as §1

[12] = tested on: mesenteric resistance arteries; assay: Ca2+-induced relaxation of isolated mesenteric resistance arteries (wire myograph); parameters: species or system rat
From the text: Branch I and II mesenteric resistance arteries, internal diameter […], are isolated from the mesenteric arcade of male Wistar rats and placed in ice cold physiologic salt solution (PSS) of the following composition in mM: NaCl, 130-140; KCl, 4.7; MgSO4.7H2 O, 1.17; NaHCO3, 5-15; KH2 PO4, 1.15 and Na2 HPO4, 1.10, CaCl2, 1.0; HEPES, 50; and glucose, 5, with a pH of 7.4 when gassed with 95% air, 5% CO2.
After cleaning of fat and connective tissue, the arterial segments are denuded of endothelium by rubbing a human hair in and out of the lumen. The vessel segments are then mounted between a force transducer and translation stage of a wire myograph using tungsten wire and the PSS is warmed to 37° C. and gassed with 95% air, 5% CO2 to provide a pH of 7.4. The vessel segments are then stretched to a length which is equivalent to an internal diameter of […] and allowed to equilibrate for 30 minutes. […]
Mesenteric resistance artery segments are isolated from sham treated and denervated rats and prepared for measurement of isometric force generation using the wire myograph system. […] For each vessel, the maximal level of relaxation is recorded and used for comparisons. At the end of the protocol, the ability of the vessel to relax in response to addition of sodium nitroprusside (SNP) is assessed to determine the ability to relax in response to a non-neural stimulus. […]

[13] = tested on: mesenteric resistance arteries; details: cited from earlier work
[14] = tested on: CGRP nerve fiber density of mesenteric resistance arteries; assay: CGRP nerve staining/density after capsaicin-induced sensory denervation; format: in vivo, rat
Method: (§2) Pregnant rats are received at 15 days gestation and pups are delivered in a vivarium. On the first and second days of life, each pup is lightly anesthetized with halothane and given s.c. injection of capsaicin (50 mg/kg) or vehicle. The rats are then kept until 7-9 weeks of age at which time they are euthanized and tissue isolated. Sub-acute regional nerve destruction is performed. […] The would is closed and the rats are allowed to recover for three days following which branches leading from the treated vessel segments are harvested for study. For each procedure, two methods are used to verify denervation of the arteries. One is a functional assay in which arteries isolated from sham or denervated rats are electrically stimulated under conditions that selectively activate perivascular sensory dilator nerves; the second is an immunocytochemical approach.
At 8 weeks of age the rats were killed and whole mount preparations of mesenteric resistance arteries were prepared, stained with polyclonal anti-calcitonin gene related peptide (CGRP), which is the primary sensory nerve transmitter, and quantified using stereomorphologic methods (Schmidt-Schoenbein et al., 1977).

[15] = tested on: Ca^2+-induced relaxation of mesenteric resistance arteries; assay: Inhibition of Ca2+-induced relaxation of mesenteric resistance arteries by antagonists or denervation; parameters: species or system rat
[16] = tested on: perivascular CaR; assay: Perivascular CaR expression after capsaicin-induced denervation; format: in vivo, rat; details: KK3 antiserum
Method: as §2, with “One is a functional assay in which arteries isolated from sham or denervated rats are electrically stimulated under conditions that selectively activate perivascular sensory dilator nerves; the second is an immunocytochemical approach.” left out
The effect of sensory denervation on perivascular nerve CaR expression is assessed using western blot analysis. […] The membranes are then stained with monoclonal anti-parathyroid CaR (1:7500) and anti-smooth muscle α-actin, then visualized using the enhanced chemiluminescence, and quantified using laser densitometry. The relative expression of CaR in each sample is then assessed as the ratio of the density of CaR staining; α-actin staining. […]
The results have been presented (Mupanomunda et al., 1997). Additional studies quantify the effect of capsaicin-induced denervation on CaR content using western blot analysis.

[17] = tested on: neurogenic inflammation; details: denervation and desensitization by treatment with capsaicin; cited from earlier work

SMILES: [Ca+2] [Ca^2+]
- effect on renal artery bioassay segment when superfused over the donor segment ([1]; 5 mM Ca2+): caused relaxation
- direct effect on bioassay (renal artery) vessel ([1]; 5 mM Ca2+ added directly): without effect; also recorded: absence of response
- direct effect on renal artery vessel after recontraction ([1]; Ca2+ 1.5-5.0 mM): no effect
- response to low dose norepinephrine [2]: significantly depressed
- effect on rat tail arteries [3]: relaxes rat tail arteries
- effect of extracellular Ca2+ on K+-induced contraction [4]: depressed
- effect on force generation [5]: depress force generation
- effect on early force response of the aorta to epinephrine [6]: suppress the early force response
- effect on later steady state response of the aorta [6]: enhanced
- steady state intracellular Ca2+ [7]: only decreased significantly in response to 2.5 mmol/L extracellular Ca^2+
- effect on cremaster arterioles [8]: graded contraction
- blood pressure lowering effect of Ca2+ supplementation ([9]; clinical trials, overall): small overall blood pressure lowering effect
- blood pressure response to Ca2+ supplementation in sub-groups ([9]; sub-groups): significant fall in blood pressure
- effect of elevated dietary calcium intake on blood pressure [10]: lowers blood pressure
- effect on force ([11]; Ca2+ between 0.01 and 0.8 mmol/L): increase in force
- steady state force and Ca2+ in ([11]; Ca2+ from 0.8 to 1.6, FIG. 2): decreased steady state force but not steady state Ca^2+in
- effect on active stress ([11]; norepinephrine, serotonin and PGF2α contraction, not K+, 0.8 to 1.6 and 1.6 to 2.5 mmol/L): decreased active stress
- effect on force ([11]; raising Ca2+ from 0.8 to 1.6 or 1.6 to 2.5 mmol/L): caused relaxation; also recorded: decrease in force and Ca^2+
- relationship of 3 mM Ca2+-induced relaxation with CaR content ([12]; 5 μM norepinephrine): positively correlated
- relaxation response of precontracted artery to Ca2+ ([12]; 1.5, 2, 3, 5, 7.5 and 10 mmol/L): biphasic relaxation response
- EC50 ([13]; cumulatively raising extracellular Ca2+ above 1.5 mM, n=12, read-out: ED50 value of Ca2+-induced relaxation): 2400 ± 170 µM
- extent of relaxation ([13]; raising extracellular Ca2+ above 1.5 mM): nearly complete relaxation
- effect on isolated arteries ([13]; raising extracellular Ca2+ from 1.0 mM to 1.5 mM): relaxes isolated arteries

SMILES: COc1cc(CNC(=O)CCCC/C=C/C(C)C)ccc1O [capsaicin]
- effect on staining for CGRP ([14]; capsaicin denervation): significantly decreases
- reduction in CGRP nerve fiber density ([14]; neonatal capsaicin (50 mg/kg s.c.), 8 weeks of age): 40%
- effect on Ca2+-induced relaxation ([15]; 20 minutes pre-treatment, 10 μM capsaicin): inhibited/reversed
- effect on Ca2+-induced relaxation ([15]; chronic capsaicin-induced sensory denervation): attenuates; also recorded: significantly attenuated
- effect on staining for perivascular CaR [16]: significantly decreases
- effect of treatment on neurogenic inflammation [17]: prevented
